Legend:
sensor 6 (ERα 312-595) [1] = molecular target: T1, sensor 6 (ERα 312-595) (Homo sapiens, UniProt P03372); assay: split mVenus complementation, flow cytometry; type: cell-based
T1 sequence (P03372 312-595): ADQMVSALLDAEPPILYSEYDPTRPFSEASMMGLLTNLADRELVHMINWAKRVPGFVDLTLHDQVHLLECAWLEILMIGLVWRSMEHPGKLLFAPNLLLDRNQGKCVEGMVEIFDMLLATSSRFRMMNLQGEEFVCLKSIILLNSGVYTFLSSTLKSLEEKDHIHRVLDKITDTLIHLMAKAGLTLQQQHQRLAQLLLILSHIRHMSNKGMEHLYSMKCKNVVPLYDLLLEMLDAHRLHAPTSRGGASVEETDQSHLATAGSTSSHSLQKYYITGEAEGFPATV

sensor 6 (ERα 312-595) [2] = molecular target: T1, sensor 6 (ERα 312-595); assay: split mVenus complementation, flow cytometry; type: cell-based; conditions: transfected HeLa cells, up to […] ligand, […] h

Row | Compound | EC50 (sensor 6 (ERα 312-595) [1]) [nM] | split mVenus complementation, flow cytometry (sensor 6 (ERα 312-595) [2])
1 | C[C@]12CC[C@@H]3c4cc(O)c(O)cc4CC[C@H]3[C@@H]1CC[C@@H]2O [2-Hydroxyestradiol] | 550 ± 100 | –
2 | C[C@]12CC[C@@H]3c4ccc(O)c(O)c4CC[C@H]3[C@@H]1CC[C@@H]2O [4-Hydroxyestradiol] | 58 ± 4.7 | –
3 | C/C=C(/C(=C/C)c1ccc(O)cc1)c1ccc(O)cc1 [Dienestrol] | 4.4 ± 0.87 | –
4 | O=c1c(-c2ccc(O)cc2)coc2cc(O)ccc12 [daidzein] | – | both of which caused an increase in fluorescence at micromolar concentrations
5 | Clc1ccc(C(c2ccccc2Cl)C(Cl)(Cl)Cl)cc1 (centres unmarked) [o,p’-DDT] | – | The pesticide o,p’-DDT, and a PCB compound also displayed activation beginning at micromolar levels
